Tested on: MPNST complex spheroid with HUVEC/MSC, growth, % test/control
Test: Anticancer human tumor MPNST cell line growth inhibition [Asc];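 note: compounds left on spheroids for seven days before reading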
Settings: for IC50: curve of first compound; for viability, T/C: stronger effect = lower value
Procedure: Multicellular complex tumor spheroid response to apoptosis pathway targeting inhibitors Alrizomadlin, Pelcitoclax, and Dasminapant in combination with a variety of drugs and investigational agents in selected tumor cell lines
The MDM2 inhibitor alrizomadlin, the Bcl-2/Bcl-xL inhibitor pelcitoclax, and the IAPs inhibitor dasminapant were evaluated both individually and in combination with standard of care and investigational anticancer small molecules within a complex spheroid model of solid tumors. . Complex spheroids include a stromal component modeled by human endothelial cells (HUVEC) and fibroblasts modeled by human mesenchymal stem cells (MSCs). The concentration ranges selected for each drug and investigational agent were based upon clinically achievable concentrations if the clinical Cmax of the agent was known.
Compounds. The drugs and investigational agents: alrizomadlin (APG-115; NSC831270), pelcitoclax (APG-1252; NSC835773), dasminapant (APG-1387;NSC834197), TAK-243 (NSC785004), copanlisib (NSC809693), olaparib (NSC753686), talazoparib (NSC767125), cobimetinib (NSC 768068), eltanexor (KPT-8602, NSC 794443), abemaciclib (NSC 768073), sotorasib (NSC818433), adagrasib (NSC 831453), MRTX-1133 (NSC 836407), Iadademestat (ORY1001, NSC 806812), and RMC-4630 (NSC839698), were obtained from the NCI Developmental Therapeutics Program Chemical Repository. The FDA-approved anticancer drug set is available from the Developmental Therapeutics Program at https://dtp.cancer.gov/organization/dscb/obtaining/available plates.htm. […] The stock solutions were prepared in dimethyl sulfoxide (DMSO, Sigma-Aldrich, St. Louis, MO, cat. D2650) at 800-fold the tested concentration and stored at -70 degrees C prior to their use. All drugs and investigational agents were tested over a range starting from a high concentration at or near the clinical Cmax and decreasing in half-log increments. If the clinical Cmax for an agent had not been determined, the highest concentration tested was 10 microM.
The patient-derived cancer (PDC) cell lines include five colon adenocarcinomas: 186277-243-T-J2-PDC, 616215-338-R-J1-PDC, 439559-082-T-J2-PDC, 463943-066-T-J2-PDC, and 519858-162-T-J1-PDC; three pancreatic carcinomas: 323965-272-R-J2-PDC, 521955-158-R6-J3-PDC, and 521955-158-R2-J5-PDC; two uterine sarcomas: 327498-152-R-J2-PDC and 993429-296-R-J1-PDC; two rhabdomyosarcomas: 755483-174-R-J1-PDC and 772245-204-R-J1-PDC; two soft tissue sarcomas: 126254-015-R-J1-PDC and 494315-158-R-J1-PDC; two malignant fibrous histiocytomas: 317291-083-R-J1-PDC and 596521-263-R-J1-PDC; two breast carcinomas: 171881-019-R-J1-PDC and 885512-296-R-J2-PDC; and one ovarian carcinoma: 6556581-035-R-J-PDC were obtained from the NCI PDMR, (https://pdmr.cancer.gov). The established cell lines HSSY-2 synovial sarcoma (RRID:CVCL 8719), SYO-1 synovial sarcoma (RRID:CVCL_7146), MPNST malignant peripheral neural sheath tumor were obtained from the Sloan Kettering Institute. The following established cell lines were purchased from the American Type Culture Collection (ATCC, Manassas, VA), Sor the received from the NCI repository:, PANC-1 pancreatic carcinoma (CRL-1469, RRID:CVCL_0480), OVCAR-5 ovarian carcinoma (RRID:CVCL_1628), OVCAR-8 ovarian carcinoma (RRID:CVCL_1629), , MCF-7 breast carcinoma (CRL-12584, RRID:CVCL_0031), MDA-MB-231 breast carcinoma (CRL-12532, RRID:CVCL_0062), NCI-H1876 small cell lung carcinoma (CRL-5902, RRID:CVCL_1503), NCI-H510A small cell lung carcinoma (HTB-184, RRID:CVCL_1565), NCI-H1417 (CRL-5869, RRID:CVCL_1469), and NCI-H196 small cell lung carcinoma (CRL-5823, RRID:CVCL_1509). Dr. Peter Houghton (Greehey Children's Cancer Research Institute, University of Texas Health Science Center, San Antonio, TX) provided Rh-18 rhabdomyosarcoma (RRID:CVCL_1659). Pooled donor human umbilical vein endothelial cells (HUVEC, Lonza, cat. CC-2519) and human mesenchymal stem cells (hMSC, Lonza, cat. PT-2501) were purchased from Lonza (Walkersville, MD).
Cell Culture. […]

[1] = second compound 0.03 µM, first compound 0.00316 µM
[2] = second compound 0.03 µM, first compound 0.01 µM
[3] = second compound 0.03 µM, first compound 0.0316 µM
[4] = second compound 0.03 µM, first compound 0.1 µM
[5] = second compound 0.0949 µM, first compound 0.00316 µM
[6] = second compound 0.0949 µM, first compound 0.01 µM
[7] = second compound 0.0949 µM, first compound 0.0316 µM
[8] = second compound 0.0949 µM, first compound 0.1 µM
[9] = second compound 0.3 µM, first compound 0.00316 µM
[10] = second compound 0.3 µM, first compound 0.01 µM
[11] = second compound 0.3 µM, first compound 0.0316 µM
[12] = second compound 0.3 µM, first compound 0.1 µM
[13] = second compound 0.949 µM, first compound 0.00316 µM
[14] = second compound 0.949 µM, first compound 0.01 µM
[15] = second compound 0.949 µM, first compound 0.0316 µM
[16] = second compound 0.949 µM, first compound 0.1 µM
[17] = second compound 3 µM, first compound 0.00316 µM
[18] = second compound 3 µM, first compound 0.01 µM
[19] = second compound 3 µM, first compound 0.0316 µM
[20] = second compound 3 µM, first compound 0.1 µM

With `COc1c(OCCCN2CCOCC2)ccc2c3n(c(=NC(=O)c4cnc(N)nc4)nc12)CCN3` + CCN1C(C(=O)NC23CCC(C(=O)O)(CC2)CC3)C(c2cccc(Cl)c2F)C2(C(=O)Nc3cc(Cl)ccc32)C12CCCCC2 the IC50 (second compound 0.03 µM) was 25.4 nM, the IC50 (second compound 0.0949 µM) was 29.7 nM and the IC50 (second compound 0.3 µM) was 38.4 nM. It also gave an IC50 (second compound 0.949 µM) of 27.2 nM, an IC50 (second compound 3 µM) of 20.9 nM and a viability, T/C [1] of 66.2%. It also gave a viability, T/C [2] of 58.8%, a viability, T/C [3] of 47% and a viability, T/C [4] of 37.1%. It also gave a viability, T/C (second compound 0.03 µM, first compound 0.316 µM) of 25.9%, a viability, T/C (second compound 0.03 µM, first compound 1 µM) of 14.6% and a viability, T/C [5] of 75.6%. The viability, T/C [6] was 58.2%, the viability, T/C [7] was 51.5% and the viability, T/C [8] was 36.5%. The viability, T/C (second compound 0.0949 µM, first compound 0.316 µM) was 30.3%, the viability, T/C (second compound 0.0949 µM, first compound 1 µM) was 17.4% and the viability, T/C [9] was 77.3%. For the same compound, the viability, T/C [10] was 64.1%, the viability, T/C [11] was 55% and the viability, T/C [12] was 36.5%. The viability, T/C (second compound 0.3 µM, first compound 0.316 µM) was 24.4%, the viability, T/C (second compound 0.3 µM, first compound 1 µM) was 17.4% and the viability, T/C [13] was 81.3%. For the same compound, the viability, T/C [14] was 60.4%, the viability, T/C [15] was 52.2% and the viability, T/C [16] was 33.2%. It also gave a viability, T/C (second compound 0.949 µM, first compound 0.316 µM) of 21%, a viability, T/C (second compound 0.949 µM, first compound 1 µM) of 17.3% and a viability, T/C [17] of 74%. It also gave a viability, T/C [18] of 62%, a viability, T/C [19] of 43% and a viability, T/C [20] of 28%. The viability, T/C (second compound 3 µM, first compound 0.316 µM) was 19.1% and the viability, T/C (second compound 3 µM, first compound 1 µM) was 15.6%.

`NC(=O)C(=Cn1cnc(-c2cc(C(F)(F)F)cc(C(F)(F)F)c2)n1)c1cncnc1` + CCN1C(C(=O)NC23CCC(C(=O)O)(CC2)CC3)C(c2cccc(Cl)c2F)C2(C(=O)Nc3cc(Cl)ccc32)C12CCCCC2 showed an IC50 (second compound 0.03 µM) of 172 nM, an IC50 (second compound 0.0949 µM) of 139 nM and an IC50 (second compound 0.3 µM) of 198 nM. The IC50 (second compound 0.949 µM) was 88 nM, the IC50 (second compound 3 µM) was 80.8 nM and the viability, T/C (second compound 0.03 µM, first compound 0.000949 µM) was 64.2%. For the same compound, the viability, T/C (second compound 0.03 µM, first compound 0.003 µM) was 78.6%, the viability, T/C (second compound 0.03 µM, first compound 0.00949 µM) was 66.9% and the viability, T/C (second compound 0.03 µM, first compound 0.03 µM) was 64%. The viability, T/C (second compound 0.03 µM, first compound 0.0949 µM) was 56.2%, the viability, T/C (second compound 0.03 µM, first compound 0.3 µM) was 43.7% and the viability, T/C (second compound 0.0949 µM, first compound 0.000949 µM) was 75%. It also gave a viability, T/C (second compound 0.0949 µM, first compound 0.003 µM) of 90.7%, a viability, T/C (second compound 0.0949 µM, first compound 0.00949 µM) of 79.7% and a viability, T/C (second compound 0.0949 µM, first compound 0.03 µM) of 71%. The viability, T/C (second compound 0.0949 µM, first compound 0.0949 µM) was 55.5%, the viability, T/C (second compound 0.0949 µM, first compound 0.3 µM) was 40.1% and the viability, T/C (second compound 0.3 µM, first compound 0.000949 µM) was 90.9%. It also gave a viability, T/C (second compound 0.3 µM, first compound 0.003 µM) of 99.1%, a viability, T/C (second compound 0.3 µM, first compound 0.00949 µM) of 90.9% and a viability, T/C (second compound 0.3 µM, first compound 0.03 µM) of 79.3%. The viability, T/C (second compound 0.3 µM, first compound 0.0949 µM) was 64.8%, the viability, T/C (second compound 0.3 µM, first compound 0.3 µM) was 42% and the viability, T/C (second compound 0.949 µM, first compound 0.000949 µM) was 95.2%. For the same compound, the viability, T/C (second compound 0.949 µM, first compound 0.003 µM) was 97%, the viability, T/C (second compound 0.949 µM, first compound 0.00949 µM) was 89.3% and the viability, T/C (second compound 0.949 µM, first compound 0.03 µM) was 71.6%. It also gave a viability, T/C (second compound 0.949 µM, first compound 0.0949 µM) of 47.8%, a viability, T/C (second compound 0.949 µM, first compound 0.3 µM) of 42.5% and a viability, T/C (second compound 3 µM, first compound 0.000949 µM) of 93.9%. For the same compound, the viability, T/C (second compound 3 µM, first compound 0.003 µM) was 77.8%, the viability, T/C (second compound 3 µM, first compound 0.00949 µM) was 66.1% and the viability, T/C (second compound 3 µM, first compound 0.03 µM) was 56%. For the same compound, the viability, T/C (second compound 3 µM, first compound 0.0949 µM) was 50.7% and the viability, T/C (second compound 3 µM, first compound 0.3 µM) was 42.6%.

Work on `NC1CCC(NC2CC2c2ccccc2)CC1` (stereo not given) + CCN1C(C(=O)NC23CCC(C(=O)O)(CC2)CC3)C(c2cccc(Cl)c2F)C2(C(=O)Nc3cc(Cl)ccc32)C12CCCCC2 yielded an IC50 (second compound 0.03 µM) greater than 100 nM, an IC50 (second compound 0.0949 µM) greater than 100 nM and an IC50 (second compound 0.3 µM) greater than 100 nM. It also gave an IC50 (second compound 0.949 µM) greater than 100 nM, an IC50 (second compound 3 µM) greater than 100 nM and a viability, T/C (second compound 0.03 µM, first compound 0.000316 µM) of 79.1%. For the same compound, the viability, T/C (second compound 0.03 µM, first compound 0.001 µM) was 72.2%, the viability, T/C [1] was 67.4% and the viability, T/C [2] was 74.8%. The viability, T/C [3] was 87%, the viability, T/C [4] was 82.7% and the viability, T/C (second compound 0.0949 µM, first compound 0.000316 µM) was 98.7%. For the same compound, the viability, T/C (second compound 0.0949 µM, first compound 0.001 µM) was 87.6%, the viability, T/C [5] was 92.6% and the viability, T/C [6] was 91.5%. It also gave a viability, T/C [7] of 63.7%, a viability, T/C [8] of 82.7% and a viability, T/C (second compound 0.3 µM, first compound 0.000316 µM) of 81.7%. It also gave a viability, T/C (second compound 0.3 µM, first compound 0.001 µM) of 85.7%, a viability, T/C [9] of 83.8% and a viability, T/C [10] of 90.8%. It also gave a viability, T/C [11] of 69.5%, a viability, T/C [12] of 75% and a viability, T/C (second compound 0.949 µM, first compound 0.000316 µM) of 87.9%. The viability, T/C (second compound 0.949 µM, first compound 0.001 µM) was 87.7%, the viability, T/C [13] was 98% and the viability, T/C [14] was 74.2%. It also gave a viability, T/C [15] of 72.5%, a viability, T/C [16] of 66.7% and a viability, T/C (second compound 3 µM, first compound 0.000316 µM) of 83.9%. The viability, T/C (second compound 3 µM, first compound 0.001 µM) was 81.4%, the viability, T/C [17] was 60.3% and the viability, T/C [18] was 59.8%. The viability, T/C [19] was 68.9% and the viability, T/C [20] was 65.8%.
